Results as given in BindingDB's records for PubMed 8301592 (Washington University, 1994).
Values joined by “and” are separate entries in the source; they are usually repeats but may differ in a detail not shown here. Equal entries are not always repeated.

Biological target: D(3) dopamine receptor (Rattus norvegicus, UniProt P19020)
Sequence (P19020 whole entry): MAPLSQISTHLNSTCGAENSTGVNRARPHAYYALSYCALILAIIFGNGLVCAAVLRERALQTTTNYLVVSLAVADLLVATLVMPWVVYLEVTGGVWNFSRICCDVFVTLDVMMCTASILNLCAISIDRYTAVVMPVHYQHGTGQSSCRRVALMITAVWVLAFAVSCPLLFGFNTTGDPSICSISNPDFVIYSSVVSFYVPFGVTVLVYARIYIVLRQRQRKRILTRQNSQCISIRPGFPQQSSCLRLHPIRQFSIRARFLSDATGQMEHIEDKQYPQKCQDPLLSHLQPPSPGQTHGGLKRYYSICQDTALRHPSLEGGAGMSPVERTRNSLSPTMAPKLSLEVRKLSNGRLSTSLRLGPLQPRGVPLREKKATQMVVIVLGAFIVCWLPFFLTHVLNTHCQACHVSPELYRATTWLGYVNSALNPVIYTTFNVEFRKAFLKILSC

Compound	Ki
CCc1cc(Cl)c(OC)c(C(=O)NC[C@@H]2CCCN2CC)c1O [3-Chloro-5-ethyl-N-((S)-1-ethyl-pyrrolidin-2-ylmethyl)-6-hydroxy-2-methoxy-benzamide]	0.16 nM and 0.46 nM
Nc1nc2c(ncn2[C@@H]2O[C@H](COP(=O)(O)OP(=O)(O)NP(=O)(O)O)[C@@H](O)[C@H]2O)c(=O)[nH]1 [Guanylyl imidodiphosphate]	264 nM and 617 nM
